# Assay results as given in US8586588B2, “Aryl pyridazinone derivatives and their use as H3 receptor ligands” (Cephalon, Inc., priority 2006, dated 2013).
# Like-named read-outs stand apart in the source and are kept apart here.
# Tests used:
# human H3 receptor = biological target: T1, human H3 receptor (Homo sapiens, UniProt Q9Y5N1); assay: Human H3 radioligand binding ([3H]-N-alpha-methylhistamine, CHO cell membranes, SPA); conditions: binding constant as letter class
# T1 construct: expressed in transfected cells
# Method in brief: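 Scintillation proximity format: bead-proximal [3H]-N-alpha-methylhistamine (approximately 1 nM final) bound to human H3 receptor in CHO membranes was counted after 4 h at room temperature, light-protected. Buffer was pH 7.4 Tris/MgCl2/BSA; test compounds spanned 0.01 nM-30 μM; 10 μM clobenpropit set non-specific binding.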
# [1] = biological target: T2, rat histamine H3 receptor (Rattus norvegicus, UniProt Q9QYN8); assay: Rat H3 radioligand binding ([3H]-N-alpha-methylhistamine, CHO-A3 cell membranes, SPA)
# T2 construct: encoding the entire 445-amino-acid rat histamine H3 receptor; expressed in transfected cells
# Method in brief: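 Scintillation proximity displacement of about 1 nM [3H]-N-alpha-methylhistamine, test compound 0.01 nM-30 μM, 4 h, room temperature, in the dark. Receptor source: rat H3 stably transfected into CHO-A3 cells, 10 μg membrane protein, Tris-HCl pH 7.4/MgCl2/BSA buffer. Nonspecific binding defined by 10 μM clobenpropit.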
# [2] = Table A, binding constant as letter class, read-out: Rat H3 Ki
# [3] = Table B, binding constant as letter class, read-out: rat H3 Ki
# T2 sequence (Q9QYN8 whole entry): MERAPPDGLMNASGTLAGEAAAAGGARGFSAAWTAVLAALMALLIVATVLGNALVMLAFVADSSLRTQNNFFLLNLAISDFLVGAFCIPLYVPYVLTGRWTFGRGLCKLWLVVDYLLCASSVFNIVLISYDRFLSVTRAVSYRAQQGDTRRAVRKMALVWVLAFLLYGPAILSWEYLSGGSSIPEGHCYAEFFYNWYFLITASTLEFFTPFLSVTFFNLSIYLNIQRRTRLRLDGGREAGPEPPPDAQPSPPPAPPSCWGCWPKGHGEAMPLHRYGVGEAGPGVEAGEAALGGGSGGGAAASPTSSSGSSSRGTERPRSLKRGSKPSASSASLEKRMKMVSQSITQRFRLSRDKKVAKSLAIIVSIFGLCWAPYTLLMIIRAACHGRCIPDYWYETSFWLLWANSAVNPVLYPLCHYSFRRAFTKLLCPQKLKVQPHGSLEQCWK
# T1 sequence (Q9Y5N1 whole entry): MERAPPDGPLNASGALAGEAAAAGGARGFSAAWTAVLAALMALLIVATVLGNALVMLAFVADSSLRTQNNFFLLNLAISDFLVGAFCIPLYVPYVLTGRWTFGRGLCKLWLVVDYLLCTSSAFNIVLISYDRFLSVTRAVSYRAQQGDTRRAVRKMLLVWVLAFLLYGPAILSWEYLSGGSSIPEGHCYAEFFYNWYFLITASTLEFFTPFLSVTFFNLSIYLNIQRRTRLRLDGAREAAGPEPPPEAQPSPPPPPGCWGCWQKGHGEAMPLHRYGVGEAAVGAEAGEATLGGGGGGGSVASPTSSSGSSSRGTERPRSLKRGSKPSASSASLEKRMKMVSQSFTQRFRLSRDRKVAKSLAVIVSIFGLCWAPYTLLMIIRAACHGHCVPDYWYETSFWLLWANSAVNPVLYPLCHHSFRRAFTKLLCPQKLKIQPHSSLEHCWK
Structure (SMILES),Ki (human H3 receptor; Table A),"Ki [1, 2]",Ki (human H3 receptor; Table B),"Ki [1, 3]","Ki ([1]; Table B, cell prints a number instead of a letter, read-out: rat H3 Ki)"
"Cn1nc(-c2ccc(OCC3CCNCC3)cc2)c2ccccc2c1=O [Example 63, 2-Methyl-4-[4-(piperidin-4-ylmethoxy)-phenyl]-2H-phthalazin-1-one]",> 1000 nM,> 1000 nM,–,–,–
"Cn1nc(-c2ccc(OCC3CCN(C4CCC4)CC3)cc2)c2ccccc2c1=O [Example 64, 4-[4-(1-Cyclobutyl-piperidin-4-ylmethoxy)-phenyl]-2-methyl-2H-phthalazin-1-one]",0.1 to 100 nM,101 to 500 nM,–,–,–
"Cn1nc(-c2ccc(OCC3CCNCC3)cc2)ccc1=O [Example 66, 2-Methyl-6-[4-(piperidin-4-ylmethoxy)-phenyl]-2H-pyridazin-3-one]",> 1000 nM,> 1000 nM,–,–,–
"Cn1nc(-c2ccc(OCC3CCN(C4CCC4)CC3)cc2)ccc1=O [Example 67, 6-[4-(1-Cyclobutyl-piperidin-4-ylmethoxy)-phenyl]-2-methyl-2H-pyridazin-3-one]",101 to 500 nM,> 1000 nM,–,–,–
"CC(C)N1CCC(COc2ccc(-c3ccc(=O)n(C)n3)cc2)CC1 [Example 68, 6-[4-(1-Isopropyl-piperidin-4-ylmethoxy)-phenyl]-2-methyl-2H-pyridazin-3-one]",0.1 to 100 nM,101 to 500 nM,–,–,–
"Cn1nc(-c2ccc(OCC3CCN(CC4CC4)CC3)cc2)ccc1=O [Example 69, 6-[4-(1-Cyclopropylmethyl-piperidin-4-ylmethoxy)-phenyl]-2-methyl-2H-pyridazin-3-one]",101 to 500 nM,> 1000 nM,–,–,–
"Cn1nc(-c2ccc(OCC3CCN(C4CCCC4)CC3)cc2)ccc1=O [Example 70, 6-[4-(1-Cyclopentyl-piperidin-4-ylmethoxy)-phenyl]-2-methyl-2H-pyridazin-3-one]",101 to 500 nM,101 to 500 nM,–,–,–
"CN1CCC(COc2ccc(-c3ccc(=O)n(C)n3)cc2)CC1 [Example 71, 2-Methyl-6-[4-(1-methyl-piperidin-4-ylmethoxy)-phenyl]-2H-pyridazin-3-one]",101 to 500 nM,501 to 1000 nM,–,–,–
CC(C)N1CCC(Oc2ccc(-c3ccc(=O)n(C)n3)cc2)CC1 [Example 72],0.1 to 100 nM,0.1 to 100 nM,–,–,–
Cn1nc(-c2ccc(OC3CCNCC3)cc2)ccc1=O [Example 73],501 to 1000 nM,> 1000 nM,–,–,–
Cn1nc(-c2ccc(OC3CCN(C4CCC4)CC3)cc2)ccc1=O [Example 74],0.1 to 100 nM,0.1 to 100 nM,–,–,–
"C[C@@H]1CCCN1CCCOc1ccc2c(c1)CCc1cc(=O)n(C)nc1-2 [Example 75, 2-Methyl-8-[3-((R)-2-methyl-pyrrolidin-1-yl)-propoxy]-5,6-dihydro-2H-benzo[h]cinnolin-3-one]",0.1 to 100 nM,0.1 to 100 nM,–,–,–
"C[C@@H]1CCCN1CCCOc1ccc2c(c1)CCc1cc(=O)n(-c3ccccc3)nc1-2 [Example 76, 8-[3-((R)-2-Methyl-pyrrolidin-1-yl)-propoxy]-2-phenyl-5,6-dihydro-2H-benzo[h]cinnolin-3-one]",0.1 to 100 nM,0.1 to 100 nM,–,–,–
"O=c1cc2c(nn1Cc1ccccc1)-c1ccc(OCCCN3CCCCC3)cc1CC2 [Example 77, 2-Benzyl-8-(3-piperidin-1-yl-propoxy)-5,6-dihydro-2H-benzo[h]cinnolin-3-one]",0.1 to 100 nM,101 to 500 nM,–,–,–
"CC(C)n1nc2c(cc1=O)CCc1cc(OCCCN3CCCCC3)ccc1-2 [Example 78, 2-Isopropyl-8-(3-piperidin-1-yl-propoxy)-5,6-dihydro-2H-benzo[h]cinnolin-3-one]",0.1 to 100 nM,0.1 to 100 nM,–,–,–
"C[C@@H]1CCCN1CCCOc1ccc(-c2ccc(=O)n(-c3ccccc3)n2)cc1F [Example 81, 6-{3-Fluoro-4-[3-((R)-2-methyl-pyrrolidin-1-yl)-propoxy]-phenyl}-2-phenyl-2H-pyridazin-3-one]",0.1 to 100 nM,0.1 to 100 nM,0.1 to 100 nM,0.1 to 100 nM,–
"C[C@@H](COc1ccc(-c2ccc(=O)n(C)n2)cc1)CN1CCC[C@H]1C [Example 82, 2-Methyl-6-{4-[(R)-2-methyl-3-((R)-2-methyl-pyrrolidin-1-yl)-propoxy]-phenyl}-2H-pyridazin-3-one]",–,–,0.1 to 100 nM,0.1 to 100 nM,–
"C[C@@H]1CCCN1CCCOc1ccc(-c2ccc(=O)n(C)n2)cc1Cl [Example 85, 6-{3-Chloro-4-[3-((R)-2-methyl-pyrrolidin-1-yl)-propoxy]-phenyl}-2-methyl-2H-pyridazin-3-one]",–,–,0.1 to 100 nM,0.1 to 100 nM,–
"Cc1nn(C)c(=O)cc1-c1ccc(OCCCN2CCC[C@H]2C)cc1 [Example 86, 2,6-Dimethyl-5-{4-[3-((R)-2-methyl-pyrrolidin-1-yl)-propoxy]-phenyl}-2H-pyridazin-3-one]",–,–,0.1 to 100 nM,0.1 to 100 nM,–

Structure (SMILES),Ki (human H3 receptor; Table A),"Ki [1, 2]",Ki (human H3 receptor; Table B),"Ki [1, 3]","Ki ([1]; Table B, cell prints a number instead of a letter, read-out: rat H3 Ki)"
"Cc1nn(C)c(=O)cc1-c1ccc(OCCCN2CCCCC2)cc1 [Example 87, 2,6-Dimethyl-5-[4-(3-piperidin-1-yl-propoxy)-phenyl]-2H-pyridazin-3-one]",–,–,0.1 to 100 nM,0.1 to 100 nM,–
"Cc1n[nH]c(=O)cc1-c1ccc(OCCCN2CCC[C@H]2C)cc1 [Example 88, 6-Methyl-5-{4-[3-((R)-2-methyl-pyrrolidin-1-yl)-propoxy]-phenyl}-2H-pyridazin-3-one]",–,–,0.1 to 100 nM,0.1 to 100 nM,–
"Cc1n[nH]c(=O)cc1-c1ccc(OCCCN2CCCCC2)cc1 [Example 89, 6-Methyl-5-[4-(3-piperidin-1-yl-propoxy)-phenyl]-2H-pyridazin-3-one]",–,–,0.1 to 100 nM,0.1 to 100 nM,–
"Cc1n[nH]c(=O)cc1-c1ccc(OCCCN2CCCCCC2)cc1 [Example 90, 5-[4-(3-Azepan-1-yl-propoxy)-phenyl]-6-methyl-2H-pyridazin-3-one]",–,–,0.1 to 100 nM,–,5 nM
"C[C@@H]1CCCN1CCCOc1ccc(-c2cnn(C)c(=O)c2)cc1 [Example 91, 2-Methyl-5-{4-[3-((R)-2-methyl-pyrrolidin-1-yl)-propoxy]-phenyl}-2H-pyridazin-3-one]",–,–,0.1 to 100 nM,0.1 to 100 nM,–
"Cn1ncc(-c2ccc(OCCCN3CCCCC3)cc2)cc1=O [Example 92, 2-Methyl-5-[4-(3-piperidin-1-yl-propoxy)-phenyl]-2H-pyridazin-3-one]",–,–,0.1 to 100 nM,0.1 to 100 nM,–
"Cn1ncc(-c2ccc(OCCCN3CCCCCC3)cc2)cc1=O [Example 93, 5-[4-(3-Azepan-1-yl-propoxy)-phenyl]-2-methyl-2H-pyridazin-3-one]",–,–,0.1 to 100 nM,0.1 to 100 nM,–
"O=c1cc(-c2ccc(OCCCN3CCCCC3)cc2)cnn1-c1ccccn1 [Example 95, 5-[4-(3-Piperidin-1-yl-propoxy)-phenyl]-2-pyridin-2-yl-2H-pyridazin-3-one]",–,–,0.1 to 100 nM,0.1 to 100 nM,–
"O=c1cc(-c2ccc(OCCCN3CCCCCC3)cc2)cnn1-c1ccccn1 [Example 96, 5-[4-(3-Azepan-1-yl-propoxy)-phenyl]-2-pyridin-2-yl-2H-pyridazin-3-one]",–,–,0.1 to 100 nM,0.1 to 100 nM,–
"Cc1cccnc1-n1ncc(-c2ccc(OCCCN3CCC[C@H]3C)cc2)cc1=O [Example 99, 2-(3-Methyl-pyridin-2-yl)-5-{4-[3-((R)-2-methylpyrrolidin-1-yl)-propoxy]-phenyl}-2H-pyridazin-3-one]",–,–,0.1 to 100 nM,0.1 to 100 nM,–
"Cc1nn(-c2ccccn2)c(=O)cc1-c1ccc(OCCCN2CCC[C@H]2C)cc1 [Example 100, 6-Methyl-5-{4-[3-((R)-2-methyl-pyrrolidin-1-yl)-propoxy]-phenyl}-2-pyridin-2-yl-2H-pyridazin-3-one]",–,–,0.1 to 100 nM,0.1 to 100 nM,–
"Cc1cccnc1-n1nc(C)c(-c2ccc(OCCCN3CCC[C@H]3C)cc2)cc1=O [Example 101, 6-Methyl-2-(3-methyl-pyridin-2-yl)-5-{4-[3-((R)-2-methyl-pyrrolidin-1-yl)-propoxy]-phenyl}-2H-pyridazin-3-one]",–,–,0.1 to 100 nM,0.1 to 100 nM,–
"Cc1n[nH]c(=O)cc1-c1ccc(OC2CCN(C3CCC3)CC2)cc1 [Example 103, 5-[4-(1-Cyclobutyl-piperidin-4-yloxy)-phenyl]-6-methyl-2H-pyridazin-3-one]",–,–,0.1 to 100 nM,0.1 to 100 nM,–
"Cc1nn(-c2ccccn2)c(=O)cc1-c1ccc(OC2CCN(C3CCC3)CC2)cc1 [Example 104, 5-[4-(1-Cyclobutyl-piperidin-4-yloxy)-phenyl]-6-methyl-2-pyridin-2-yl-2H-pyridazin-3-one]",–,–,0.1 to 100 nM,0.1 to 100 nM,–
"O=c1cc(-c2ccc(OC3CCNCC3)cc2)cn[nH]1 [Example 105, 5-[4-(Piperidin-4-yloxy)-phenyl]-2H-pyridazin-3-one]",–,–,> 1000 nM,> 1000 nM,–
"O=c1cc(-c2ccc(OC3CCN(C4CCC4)CC3)cc2)cn[nH]1 [Example 106, 5-[4-(1-Cyclobutyl-piperidin-4-yloxy)-phenyl]-2H-pyridazin-3-one]",–,–,0.1 to 100 nM,0.1 to 100 nM,–
"Cc1nn(-c2ccsc2)c(=O)cc1-c1ccc(OC2CCN(C3CCC3)CC2)cc1 [Example 107, 5-[4-(1-Cyclobutyl-piperidin-4-yloxy)-phenyl]-6-methyl-2-thiophen-3-yl-2H-pyridazin-3-one]",–,–,0.1 to 100 nM,0.1 to 100 nM,–
"Cc1nn(-c2ccsc2)c(=O)cc1-c1ccc(OCCCN2CCC[C@H]2C)cc1 [Example 108, 6-Methyl-5-{4-[3-((R)-2-methyl-pyrrolidin-1-yl)-propoxy]-phenyl}-2-thiophen-3-yl-2H-pyridazin-3-one]",–,–,0.1 to 100 nM,0.1 to 100 nM,–
"C[C@@H]1CCCN1CCCOc1ccc(C2=NNC(=O)CC2c2ccccn2)cc1 (stereo partly drawn) [Example 111, 6-{4-[3-((R)-2-Methyl-pyrrolidin-1-yl)-propoxy]-phenyl}-5-pyridin-2-yl-4,5-dihydro-2H-pyridazin-3-one]",–,–,0.1 to 100 nM,0.1 to 100 nM,–
